The results in this text go back to patent publication US5965533A, “Atrial natriuretic peptide (ANP) as an additive to peritoneal dialysis solutions” (Baxter International Inc., priority 1997, dated 1999).

In assay [1] the test system is rats. Kind of assay: Intraperitoneally administered ANP in peritoneal dialysis solution, transport characteristics in rats, 4 hour dwell. It counts as in vivo, rat. The procedure:
A first experiment was performed to assess the effect of intraperitoneal administered ANP on peritoneal dialysis transport characteristics in rats. In this study, a dose of 9 μg ANP/kg BW of rat was mixed in a base solution of 2.5% dextrose DIANEAL® solution. The rats were injected with 90 ml/kg BW of either the above solution with the ANP additive or an unaltered control DIANEAL® solution.
Blood samples were taken before and after the 4 hour dwell period. Dialysate samples were collected at the start of the dwell and every 2 hours thereafter. All samples were analyzed for urea nitrogen (UN), sodium (Na), glucose, protein (prtn), and osmolality (Osm). At the end of the 4 hour dwell period, the rats were sacrificed, the abdominal walls excised, and the effluents collected and weighed.
To prepare the above ANP solution, 250 cc of DIANEAL® PD-2 solution was transferred into a 250 ml empty bag (VIAFLEX®). 10 cc of DIANEAL® PD-2 solution was injected into a vial containing […] of ANF (atrial natriuretic factor--yANF,rat,28AA sold by Peninsula Laboratories, Inc.). 1.25 cc of the DIANEAL®/ANF solution was then withdrawn with a needle and syringe and injected into the 250 ml bag containing the DIANEAL® base solution through a 0.22 μm sterile filter. The bag was then enclosed with a sampling site coupler. The control solution was similarly transferred into a new 250 ml bag (VIAFLEX®) and enclosed with a sampling site coupler.

Assay [2] concerns sheep. Kind of assay: ANP in 4.25% dextrose DIANEAL peritoneal dialysis solution in conscious sheep, 6 hour dwell. It counts as in vivo. The note with it: mean, n = 5. Here is the method:
In a second experiment performed on sheep, ANP was added to a 4.25% dextrose DIANEAL® solution to provide a final concentration of ANP in the solution of […]. The dialysis solution was then infused into the peritoneal cavity of the sheep in 50 ml/kg BW volumes. The dwell time periods were 6 hours; the sheep remained conscious.
wherein pl. vol. is plasma volume; Vo is the volume of the peritoneal cavity before the commencement of the dialysis; V6 is the volume of the peritoneal cavity after six hours; LFR is lymph flow rate; Bl. rec. is blood recovery; and PC rec. is peritoneal cavity recovery.

[3] abbreviates: ANP as additive versus control DIANEAL solution, Table 1 and FIGS. 1 and 2.
The mark [4] stands for this setting: rat, protein, 9 μg ANP/kg BW, 4 hour, mean ± SD.
Where [5] appears, read: rat, urea nitrogen, 9 μg ANP/kg BW, 4 hour, mean ± SD.
The mark [6] stands for this setting: ANP 1×10^31 7 M in 4.25% dextrose DIANEAL.

For the substance atrial natriuretic peptide [ANP], in assay [1] (setting [3]), the “effect on net ultrafiltration (in words)” value was “increases” and the “effect on sodium clearance (in words)” value is reported as “increases”. Further, the “nUF (net ultrafiltration)” value in assay [1] (rat, 9 μg ANP/kg BW in 2.5% dextrose DIANEAL, 90 ml/kg BW i.p., 4 hour dwell, mean ± SD) turned out to be 8.17 ± 0.52 mL. Besides, the “Osm (osmolality)” value in assay [1] (rat, 9 μg ANP/kg BW in 2.5% dextrose DIANEAL, 4 hour sample, mean ± SD) was 308.0 ± 3.5 mOsm/kg. Further, the “D/D0 (glucose)” value in assay [1] (rat, glucose, 9 μg ANP/kg BW, 4 hour, mean ± SD) stood at 0.363 ± 0.024. Further, in assay [1] (setting [4]), the “Clearance (prtn)” value was 1.379 ± 0.117 µL/min and the “D/P (prtn)” value came to 0.0106 ± 0.0009. The “Clearance (Na)” value in assay [1] (rat, sodium, 9 μg ANP/kg BW, 4 hour, mean ± SD) stood at 0.1110 ± 0.0027 mL/min. Moreover, in assay [1] (setting [5]), the “Clearance (UN)” value came to 0.106 ± 0.005 mL/min and the “D/P (UN)” value is recorded as 0.81 ± 0.04. In assay [2] (setting [6]), the Fl. loss came out at 13.39 mL/kg, the “LFR (lymph flow rate)” value was 6.45 mL/kg, the “NUF (net ultra filtration)” value worked out at 22.05 mL/kg and the “PC rec. (peritoneal cavity recovery)” value is on record as 82.12%. Besides, in assay [2] (setting [6]), the Total rec. is reported as 93.81% and the “V6 (volume of the peritoneal cavity after six hours)” value worked out at 0.07246 L/kg. Besides, in assay [2] (ANP in 4.25% dextrose DIANEAL, 50 ml/kg BW), the “pl. vol. (plasma volume)” value worked out at 52.70 mL/kg. Further, in assay [2] (ANP in 4.25% dextrose DIANEAL), the “Bl. rec. (blood recovery)” value is 11.69%.
